Data published in patent EP1888615B1, “17 -HSD1 AND STS INHIBITORS” (Abbott Products GmbH, priority 2005, dated 2006).

Molecular target: T1, recombinant human 17β-hydroxysteroid dehydrogenase type 1 (Homo sapiens, UniProt P14061)
T1 construct: made in house; host or cells: Sf9 insect cells (baculovirus, Bac to Bac Expression System)
T1 sequence (P14061 1-328): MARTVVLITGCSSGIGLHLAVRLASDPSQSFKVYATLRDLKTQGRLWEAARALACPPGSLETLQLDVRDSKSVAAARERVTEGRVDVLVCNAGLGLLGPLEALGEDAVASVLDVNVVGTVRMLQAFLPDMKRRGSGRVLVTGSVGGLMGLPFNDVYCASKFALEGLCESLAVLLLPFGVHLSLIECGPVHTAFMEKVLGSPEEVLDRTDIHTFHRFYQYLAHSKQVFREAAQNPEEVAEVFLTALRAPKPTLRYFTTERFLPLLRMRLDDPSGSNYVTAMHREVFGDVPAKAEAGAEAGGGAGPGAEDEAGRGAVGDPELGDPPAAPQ
Assay: Inhibition of recombinant human 17β-hydroxysteroid dehydrogenase type 1 (conversion of 3H-estrone to estradiol, HPLC radiodetection)
Format: biochemical
Conditions: inhibitor 100 nM; 30 nM 3H-estrone, 1 mM NADPH, 30 min at RT
Method: 17β-HSD1 purification: Recombinant baculovirus was generated by the "Bac to Bac Expression System" (Invitrogen). Recombinant bacmid was transfected to Sf9 insect cells using "Cellfectin Reagent" (Invitrogen). 60h later cells were harvested; the microsomal fraction was isolated as described by Puranen et al. (1994). Aliquots were stored frozen until determination of enzymatic activity.
Assay - Inhibition of recombinant human 17β-hydroxysteroid dehydrogenase type 1: Recombinant protein (0.1µg/ml) was incubated in 20 mM KH2PO4 pH 7.4 with 30 nM 3H-estrone and 1 mM NADPH for 30 min at RT, in the presence of potential inhibitors at concentrations of 1 µM or 0.1 µM. Inhibitor stock solutions were prepared in DMSO. Final concentration of DMSO was adjusted to 1 % in all samples. The enzyme reaction was stopped by addition of 10 % trichloroacetic acid (final concentration). Samples were centrifuged in a microtiter plate at 4000 rpm for 10 min. Supernatants were applied to reverse phase HPLC on a Waters Symmetry C18 column, equipped with a Waters Sentry Guard column. Isocratic HPLC runs were performed at RT at a flow rate of 1 ml/min of acetonitrile:water 48:52 as running solvent. Radioactivity was monitored in the eluate by a Packard Flow Scintillation Analyzer. Total radioactivity for estrone and estradiol were determined in each sample and percent conversion of estrone to estradiol was calculated according to the following formula: % conversion = 100 × ({(cpm estradiol in sample with inhibitor)/[(cpm estrone in sample with inhibitor)+(cpm estradiol in sample with inhibitor)]})/({(cpm estradiol in sample without inhibitor)/[(cpm estrone in sample without inhibitor)+(cpm estradiol in sample without inhibitor)]}). [formula] [formula]
Table 19: Inhibition of 17β-HSD enzyme type I

`COc1cc2c(cc1O)CCC1C2CCC2(C)C(=O)CC(CCCC(=O)N3CCCCC3)C12` (stereo not drawn) [Example 78] was tested, and the “Inhibition of rec 17β-HSD1” value was 40.6%.

Same assay, conditions: inhibitor 1 µm; 30 nM 3H-estrone, 1 mM NADPH, 30 min at RT; read-out: Inhibition of rec 17β-HSD1

First: COc1cc2c(cc1O)CC[C@H]1[C@@H]3[C@@H](CCCC(=O)Nc4ccc5cn[nH]c5c4)CC(=O)[C@@]3(C)CC[C@H]21 [Example 83]
Second: CCOc1cc2c(cc1O)CC[C@H]1[C@@H]3[C@@H](CCCC(=O)Nc4ccc5cn[nH]c5c4)CC(=O)[C@@]3(C)CC[C@H]21 [Example 59]
The inhibition of the first is higher: 71.6% for the first, 69.7% for the second.

Going from `COc1ccc(CCN(C)C(=O)CC[C@@H]2CC(F)(F)[C@@]3(C)CC[C@@H]4c5ccc(O)cc5CC[C@H]4[C@H]23)cc1OC` [Example 134] to `COc1ccc(CCN(C)C(=O)CCC[C@H]2CC(F)(F)[C@@]3(C)CC[C@@H]4c5ccc(O)cc5CC[C@H]4[C@H]23)cc1OC` [Example 116], the inhibition falls from 88.6% to 82.4%.

Going from `COc1cc2c(cc1O)CC[C@H]1[C@@H]3[C@@H](CCCC(=O)NCc4ccccc4)CC(=O)[C@@]3(C)CC[C@H]21` [Example 71] to `COCCc1cc2c(cc1O)CC[C@H]1[C@@H]3[C@H](CCCC(=O)NCc4ccccc4)CC(=O)[C@@]3(C)CC[C@H]21` [Example 3, N-Benzyl-4-(3-hydroxy-2-(2-methoxy-ethyl)-17-oxo-estra-1,3,5(10)-trien-15β-yl)-butyramide], the inhibition rises from 70.6% to 71.2%.

Compared with `CCCc1cc2c(cc1O)CC[C@H]1[C@@H]3[C@H](CCCC(=O)NCc4ccc5c(c4)OCO5)CC(=O)[C@@]3(C)CC[C@H]21` [Example 30], `CCOc1cc2c(cc1O)CC[C@H]1[C@@H]3[C@@H](CCCC(=O)NCc4ccc5c(c4)OCO5)CC(=O)[C@@]3(C)CC[C@H]21` [Example 45] is higher in inhibition: 73.6% for the first, 75.7% for the second.

Going from `C[C@]12CC[C@@H]3c4ccc(O)cc4CC[C@H]3[C@@H]1[C@H](CCC(=O)NCc1ccc(O)c(O)c1)CC2(F)F` [Example 127] to `C[C@]12CC[C@@H]3c4ccc(O)cc4CC[C@H]3[C@@H]1[C@@H](CCCC(=O)NCc1ccc(O)c(O)c1)CC2(F)F` [Example 109], the inhibition falls from 81.3% to 70.7%.

Compared with `COc1cc(CNC(=O)CC[C@@H]2CC(F)(F)[C@@]3(C)CC[C@@H]4c5ccc(O)cc5CC[C@H]4[C@H]23)cc(OC)c1` [Example 128], `C[C@]12CC[C@@H]3c4ccc(O)cc4CC[C@H]3[C@@H]1[C@H](CCC(=O)NCc1ccccc1)CC2(F)F` [Example 125] is higher in inhibition: 71.7% for the first, 76.9% for the second.

Going from `C[C@]12CC[C@@H]3c4ccc(O)cc4CC[C@H]3[C@@H]1[C@@H](CCCC(=O)N1CCCCC1)CC2(F)F` [Example 113] to `C[C@]12CC[C@@H]3c4ccc(O)cc4CC[C@H]3[C@@H]1[C@H](CCC(=O)N1CCCCC1)CC2(F)F` [Example 131], the inhibition falls from 76.9% to 71.9%.

Compared with `CCCc1cc2c(cc1O)CC[C@H]1[C@@H]3[C@H](CCCC(=O)NCc4ccc(F)cc4F)CC(=O)[C@@]3(C)CC[C@H]21` [Example 42], `CCCc1cc2c(cc1O)CC[C@H]1[C@@H]3[C@H](CCCC(=O)NCc4ccccc4)CC(=O)[C@@]3(C)CC[C@H]21` [Example 2, N-Benzyl-4-(3-hydroxy-17-oxo-2-propyl-estra-1,3,5(10)-trien-15β-yl)-butyramide] is higher in inhibition: 71.7% for the first, 74.8% for the second.

First: COc1cc2c(cc1O)CC[C@H]1[C@@H]3[C@@H](CCCC(=O)NC4CCCCC4)CC(=O)[C@@]3(C)CC[C@H]21 [Example 67]
Second: CCOc1cc2c(cc1O)CC[C@H]1[C@@H]3[C@@H](CCCC(=O)NC4CCCCC4)CC(=O)[C@@]3(C)CC[C@H]21 [Example 44]
The inhibition of the first is lower: 73.2% for the first, 75% for the second.

Compared with `CCCc1cc2c(cc1O)CC[C@H]1[C@@H]3[C@H](CCCC(=O)NCCc4c[nH]c5c(C)cccc45)CC(=O)[C@@]3(C)CC[C@H]21` [Example 34], `CCOc1cc2c(cc1O)CC[C@H]1[C@@H]3[C@@H](CCCC(=O)NCCc4c[nH]c5c(C)cccc45)CC(=O)[C@@]3(C)CC[C@H]21` [Example 52] is higher in inhibition: 71.9% for the first, 72.2% for the second.

Going from `C[C@]12CC[C@@H]3c4ccc(O)cc4CC[C@H]3[C@@H]1[C@H](CCC(=O)NC1CC1)CC2(F)F` [Example 120] to `C[C@]12CC[C@@H]3c4ccc(O)cc4CC[C@H]3[C@@H]1[C@H](CCC(=O)NC1CCCCC1)CC2(F)F` [Example 121], the inhibition rises from 85% to 92.5%.

First: C[C@]12CC[C@@H]3c4ccc(O)cc4CC[C@H]3[C@@H]1[C@H](CCC(=O)NCc1ccc3c(c1)OCO3)CC2(F)F [Example 122]
Second: C[C@]12CC[C@@H]3c4ccc(O)cc4CC[C@H]3[C@@H]1[C@@H](CCCC(=O)NCc1ccccc1)CC2(F)F [Example 106]
The inhibition of the first is higher: 77.9% for the first, 68% for the second.

First: C[C@]12CC[C@@H]3c4ccc(O)cc4CC[C@H]3[C@@H]1[C@@H](CCCC(=O)N1CCOCC1)CC2(F)F [Example 91, 4-(17,17-Difluoro-3-hydroxy-estra-1,3,5(10)-trien-15a-yl)-1-morpholin-4-yl-butan-1-one]
Second: C[C@]12CC[C@@H]3c4ccc(O)cc4CC[C@H]3[C@@H]1[C@H](CCCC(=O)N1CCOCC1)CC2(F)F [Example 90, 4-(17,17-Difluoro-3-hydroxy-estra-1,3,5(10)-trien-15β-yl)-1-morpholin-4-yl-butan-1-one]
The inhibition of the first is higher: 85% for the first, 81.6% for the second.

First: Cc1cnc(NC(=O)CC[C@@H]2CC(F)(F)[C@@]3(C)CC[C@@H]4c5ccc(O)cc5CC[C@H]4[C@H]23)s1 [Example 93, 3-(17,17-Difluoro-3-hydroxy-estra-1,3,5(10)-trien-15β-yl)-N-(5-methyl-thiazol-2-yl)-propionamide]
Second: CCN(CC)C(=O)CC[C@@H]1CC(F)(F)[C@@]2(C)CC[C@@H]3c4ccc(O)cc4CC[C@H]3[C@H]12 [Example 133]
The inhibition of the first is lower: 86.7% for the first, 90.6% for the second.

First: Cc1cccc2c(CCNC(=O)CC[C@@H]3CC(F)(F)[C@@]4(C)CC[C@@H]5c6ccc(O)cc6CC[C@H]5[C@H]34)c[nH]c12 [Example 129]
Second: Cc1cccc2c(CCNC(=O)CCC[C@H]3CC(F)(F)[C@@]4(C)CC[C@@H]5c6ccc(O)cc6CC[C@H]5[C@H]34)c[nH]c12 [Example 111]
The inhibition of the first is higher: 76.9% for the first, 68.3% for the second.

First: CCCc1cc2c(cc1O)CC[C@H]1[C@@H]3[C@H](CCCC(=O)N(C)Cc4ccccc4)CC(=O)[C@@]3(C)CC[C@H]21 [Example 37]
Second: CCCc1cc2c(cc1O)CC[C@H]1[C@@H]3[C@H](CCCC(=O)NCc4cccnc4)CC(=O)[C@@]3(C)CC[C@H]21 [Example 32]
The inhibition of the first is lower: 74.7% for the first, 79% for the second.

First: CCCc1cc2c(cc1O)CC[C@H]1[C@@H]3[C@H](CCCC(=O)N4CCCCC4)CC(=O)[C@@]3(C)CC[C@H]21 [Example 36]
Second: CCOc1cc2c(cc1O)CC[C@H]1[C@@H]3[C@@H](CCCC(=O)N4CCCCC4)CC(=O)[C@@]3(C)CC[C@H]21 [Example 55]
The inhibition of the first is higher: 78.1% for the first, 71.9% for the second.

Compared with `COc1cc2c(cc1O)CCC1C2CCC2(C)C(=O)CC(CCCC(=O)N3CCCCC3)C12` (stereo not drawn) [Example 78], `CCCc1cc2c(cc1O)CC[C@H]1[C@@H]3[C@H](CCCC(=O)N4CCOCC4)CC(=O)[C@@]3(C)CC[C@H]21` [Example 6, 3-Hydroxy-15β-(4-morpholin-4-yl-4-oxo-butyl)-2-propyl-estra-1,3,5(10)-trien-17-one] is higher in inhibition: 72% for the first, 79.3% for the second.

First: C[C@]12CC[C@@H]3c4ccc(OCc5ccccc5)cc4CC[C@H]3[C@@H]1[C@H](C/C=C/C(=O)N1CCOCC1)c1cnoc12 [161']
Second: C[C@]12CC[C@@H]3c4ccc(O)cc4CC[C@H]3[C@@H]1[C@@H](CCCC(=O)NC1CCCCC1)CC2(F)F [Example 102]
The inhibition of the first is higher: 74% for the first, 70.6% for the second.

First: CCCc1cc2c(cc1O)CC[C@H]1[C@@H]3[C@H](CCCC(=O)N(C)CCc4ccc(OC)c(OC)c4)CC(=O)[C@@]3(C)CC[C@H]21 [Example 38]
Second: CCCc1cc2c(cc1O)CC[C@H]1[C@@H]3[C@H](CCCC(=O)NCCOC)CC(=O)[C@@]3(C)CC[C@H]21 [Example 41]
The inhibition of the first is higher: 76.7% for the first, 70.4% for the second.

Molecule `CCCc1cc2c(cc1O)CC[C@H]1[C@@H]3[C@H](CCCC(=O)Nc4ccc5cn[nH]c5c4)CC(=O)[C@@]3(C)CC[C@H]21` [Example 40] has an inhibition of 75.8%.
